Earlier results, collected in patent US11384062B2 (CombiPhos Catalysts, Inc., priority 2017, dated 2022).
Like-named read-outs stand apart in the source and are kept apart here.

What was measured:
PARP = conditions: read-out: EC50, inhibition of PARP activity; whole cell assay; cited from earlier work
[1] = system: cancer cells with mutant BRCA-1 and BRCA-2; conditions: read-out: CC50, inhibition of proliferation; cited from earlier work
[2] = system: BRCA-1 deficient cancer xenograft; conditions: cited from earlier work
[3] = system: CAPAN-1 pancreatic cancer cell xenograft; conditions: 80 mg/kg qd, oral dosing, for two, three, or four weeks; cited from earlier work
[4] = system: human tumor xenografts, p53 wild type and p53 mutant; conditions: variety of human tumor xenografts; cited from earlier work
recurrent ovarian cancer = conditions: cited from earlier work
[5] = dosed IV to bile duct cannulated rats; cited from earlier work

SMILES	EC50 (PARP) [nM]	CC50 [1] [nM]	tumor growth ([2]; 80 mg/kg qd, oral dosing, after one or two weeks of treatment)	tumor growth ([2]; after four week treatment)	tumor growth ([2]; continuous daily dosing for three or four weeks)	tumor growth inhibition [3] [%]	effect on radiation response [4]	median PFS (recurrent ovarian cancer; germline BRCA mutant patients) [months]	median PFS (recurrent ovarian cancer; non-gBRCAmut cohort, HRD-positive tumors) [months]	median PFS (recurrent ovarian cancer; overall non-germline BRCA mutant cohort) [months]	discontinuation rate (recurrent ovarian cancer; patients) [%]	treatment-emergent grade 3/4 adverse event: anemia (recurrent ovarian cancer; patients) [%]	treatment-emergent grade 3/4 adverse event: neutropenia (recurrent ovarian cancer; patients) [%]	treatment-emergent grade 3/4 adverse event: thrombocytopenia (recurrent ovarian cancer; patients) [%]	recovered radioactivity as the parent drug [5] [%]
NC(=O)c1cccc2cn(-c3ccc([C@@H]4CCCNC4)cc3)nc12 [niraparib, (S)-2-(4-(piperidin-3-yl)phenyl)-2H-indazole-7-carboxamide]	[…]	10 to 100	significant inhibition of tumor growth	complete and sustained regression	tumor shrinkage	~60	strongly enhances the effect of radiation	21.0	12.9	9.3	14.7	24.8	11.2	28.3	–
NC(=O)c1cccc2cn(-c3ccc([C@@H]4CCCNC4)cc3)nc12 [[^14C]-niraparib]	–	–	–	–	–	–	–	–	–	–	–	–	–	–	45
